In patent US7192948B2, “Bicyclic heterocycles as HIV integrase inhibitors” (priority 2004, dated 2007):

Columns and labels:
HIV-integrase = biological target: T1, HIV-integrase (Human immunodeficiency virus type 1 group M subtype B, UniProt P12497); test: HIV-Integrase Inhibition Activity (SPA bead strand transfer assay); format: biochemical; conditions: recombinant integrase, in vitro
T1 construct: Recombinant integrase (0.26 ng) was incubated with the beads
Description: HIV-Integrase Inhibition Activity. To evaluate in-vitro activity against HIV-integrase, 5 pmole of biotin labeled substrate DNA was bound to 100 μg of Streptavidin coated PVT SPA beads (Amersham Pharmacia Biotech). Recombinant integrase (0.26 ng) was incubated with the beads for 90 min at 37° C. Unbound enzyme was removed by washing the complex followed by addition of inhibitors and 0.1 fmol of P33 labeled target DNA. The reaction was stopped by adding EDTA to a final concentration of […]. Samples were counted in TopCountNXT (Packard) and the CPM was used as a measure of integration. The reaction condition was as described in A. Engelman and R. Craigie, J. Virol. 69, 5908–5911 (1995). The sequences of substrate and target DNA were described in Nucleic Acid Research 22, 1121–1122 (1994).

Compound: CN1C(=O)CCn2c1nc(C(=O)NCc1ccc(F)cc1)c(O)c2=O [Example 18, N-(4-Fluorobenzyl)-3-hydroxy-9-methyl-4,8-dioxo-6,7,8,9-tetrahydro-4H-pyrimido[1,2-a]pyrimidine-2-carboxamide]
- melting point: 176 to 178 °C
- IC50 (HIV-integrase): 0.016 to 49 µM
